In patent EP1964562A1, “PHARMACEUTICAL COMPOSITIONS CONTAINING DERIVATIVE SUBSTANCES OF THIAZOLIDINEDIONES COMBINED WITH A BIGUANIDE FOR USE IN TYPE 2 DIABETES MELLITUS” (priority 2005, dated 2007):
Where two headings read alike, the source gives them in different places.

Key:
[1] = system: hepatic pioglitazone metabolism; conditions: in vitro, molar concentration equal to pioglitazone; cited from earlier work
[2] = target: T1, serum proteins, particularly serum albumin (Homo sapiens, UniProt P02768); conditions: serum albumin; cited from earlier work
T1 construct: host or cells: serum
T1 sequence (P02768 25-609): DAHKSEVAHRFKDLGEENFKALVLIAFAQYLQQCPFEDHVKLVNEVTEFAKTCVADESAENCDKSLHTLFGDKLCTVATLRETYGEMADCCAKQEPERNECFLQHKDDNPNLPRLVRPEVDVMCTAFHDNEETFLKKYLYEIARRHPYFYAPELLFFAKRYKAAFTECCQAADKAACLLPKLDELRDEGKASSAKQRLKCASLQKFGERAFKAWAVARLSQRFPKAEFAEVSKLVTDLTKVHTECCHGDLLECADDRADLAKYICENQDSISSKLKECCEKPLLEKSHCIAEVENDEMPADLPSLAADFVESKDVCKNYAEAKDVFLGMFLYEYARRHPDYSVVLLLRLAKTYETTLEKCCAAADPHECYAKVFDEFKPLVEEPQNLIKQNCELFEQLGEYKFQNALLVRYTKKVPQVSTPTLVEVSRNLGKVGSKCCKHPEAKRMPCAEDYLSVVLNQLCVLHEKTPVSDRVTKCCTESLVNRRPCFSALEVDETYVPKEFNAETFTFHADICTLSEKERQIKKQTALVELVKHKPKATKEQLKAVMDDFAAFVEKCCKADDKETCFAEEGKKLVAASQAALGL

[3] = system: animal models of diabetes; conditions: animal models of type 2 diabetes; cited from earlier work
[4] = system: individuals diagnosed with DM2 and obesity; assay: Example 1: multicentric, randomized, double blind placebo-controlled trial, 8 weeks; type: in vivo, patients
Protocol: A multicentric, randomized, double blind placebo-controlled trial was conducted. In which 600 individuals diagnosed with DM2 and obesity with a BMI higher than 35 kg/m^2 were included.

[5] = system: patients diagnosed with DM2 and obesity; assay: Example 2: multicentric, randomized, double blind placebo-controlled trial, 12 weeks; type: in vivo; conditions: compared to levels at admission
Protocol: A multicentric, randomized, double blind placebo-controlled trial was conducted. In which 300 patients diagnosed with DM2 and obesity were included. The object of the study was to establish the reduction in lipid profile and in overweight.

lipid metabolism = conditions: therapeutic doses, short and long term clinical studies; cited from earlier work
[6] = cited from earlier work
[7] = system: serum proteins, particularly serum albumin; conditions: human; cited from earlier work
P-450 activity = conditions: incubated with human P-450 liver microsomes; cited from earlier work
[8] = cited from earlier work; remark: listed apart in the source

CC(=O)N1CCN(c2ccc(OCC3COC(Cn4ccnc4)(c4ccc(Cl)cc4Cl)O3)cc2)CC1 (centres unmarked) [Ketoconazole]
inhibition of hepatic pioglitazone metabolism [1]: up to 85%

CC(=O)c1ccc(CCOc2ccc(CC3SC(=O)NC3=O)cc2)nc1 (centres unmarked) [M-III]
bound to serum albumin [2]: > 98% | pharmacological activity [3]: pharmacologically active

CC(O)c1ccc(CCOc2ccc(CC3SC(=O)NC3=O)cc2)nc1 (centres unmarked) [M-IV]
bound to serum albumin [2]: > 98% | pharmacological activity [3]: pharmacologically active

CN(C)C(=N)N=C(N)N [metformin, Metformin]
patients' weight change [4]: increased | reduction in triglycerides [5]: no significant reduction | total cholesterol, LDL cholesterol and triglyceride levels (lipid metabolism): reduces | increase of Tmax by food ([6]; dose of 850 mg, with food): 0.583 h | Tmax ([6]; human, in vivo, po): 2.5 h | maximum plasma concentration ([6]; human, in vivo, po): ≤ 4 µg/mL | non-absorbed fraction recovered in the feces ([6]; human, in vivo, po): 20-30% | steady-state plasma concentrations ([6]; human, in vivo, po): less than 1 µg/ml | maximum plasma concentration ([6]; human, plasma, po): 1.5 µg/mL | plasma concentrations in cases of lactacidosis ([6]; in vivo): exceed 5 µg/ml

CCc1ccc(CCOc2ccc(CC3SC(=O)NC3=O)cc2)nc1 (centres unmarked) [pioglitazone, Pioglitazone]
bound to serum proteins [7]: > 99% | inhibition of P-450 activity (P-450 activity): did not inhibit | apparent clearance, CL/F ([8]; calculated): 5 to 7 L/h | mean serum half-live ([8]; human, serum): 3 to 7 h | renal elimination ([8]; in vivo): negligible | time to reach steady-state serum concentrations ([8]; in vivo): ≤ 7 days | time to maximum concentrations ([8]; oral administration at fasting): ≤ 2 h | time until measurable in serum ([8]; oral administration at fasting): ≤ 30 min
